Laboratory results as given in ChEMBL document CHEMBL1133078, “Isoxazolines and isoxazoles as factor Xa inhibitors” (Bioorg Med Chem Lett, 2000).

Key:
[1] = Half-life after intravenous administration of 1 mg/kg/h in dog; format: ADME, organism-based, Canis lupus familiaris; parameters: route intravenous; settings: in vivo
Oryctolagus cuniculus = organism: Oryctolagus cuniculus; experiment: Concentration required to diminish the clot size by 50% in rabbit A-V shunt model of thrombosis; format: functional
Serine protease 1 = target: T1, Serine protease 1 (Bos taurus, UniProt P00760); experiment: Inhibitory activity against trypsin
T1 sequence (P00760 whole entry): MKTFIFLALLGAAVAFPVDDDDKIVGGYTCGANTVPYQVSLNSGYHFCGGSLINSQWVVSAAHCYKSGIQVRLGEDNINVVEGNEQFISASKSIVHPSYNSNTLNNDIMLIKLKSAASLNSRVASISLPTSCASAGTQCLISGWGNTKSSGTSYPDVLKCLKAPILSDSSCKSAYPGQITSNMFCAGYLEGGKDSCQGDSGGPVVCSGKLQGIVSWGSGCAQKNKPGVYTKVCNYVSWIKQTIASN

Canis familiaris = experiment: Volume of distribution after intravenous administration of 1 mg/kg/h in dog; format: ADME, organism-based, Canis lupus familiaris; parameters: route intravenous; settings: in vivo
[2] = Clearance value of compound was determined after intravenous administration of 1 mg/kg/h in dog; format: ADME, organism-based, Canis lupus familiaris; parameters: route intravenous; settings: in vivo
Prothrombin = Prothrombin (Homo sapiens, UniProt P00734); experiment: Inhibitory activity against thrombin
Coagulation factor X [3] = target: T2, Coagulation factor X (Oryctolagus cuniculus, UniProt O19045); experiment: Inhibitory activity against rabbit Coagulation factor X
T2 sequence (O19045 whole entry): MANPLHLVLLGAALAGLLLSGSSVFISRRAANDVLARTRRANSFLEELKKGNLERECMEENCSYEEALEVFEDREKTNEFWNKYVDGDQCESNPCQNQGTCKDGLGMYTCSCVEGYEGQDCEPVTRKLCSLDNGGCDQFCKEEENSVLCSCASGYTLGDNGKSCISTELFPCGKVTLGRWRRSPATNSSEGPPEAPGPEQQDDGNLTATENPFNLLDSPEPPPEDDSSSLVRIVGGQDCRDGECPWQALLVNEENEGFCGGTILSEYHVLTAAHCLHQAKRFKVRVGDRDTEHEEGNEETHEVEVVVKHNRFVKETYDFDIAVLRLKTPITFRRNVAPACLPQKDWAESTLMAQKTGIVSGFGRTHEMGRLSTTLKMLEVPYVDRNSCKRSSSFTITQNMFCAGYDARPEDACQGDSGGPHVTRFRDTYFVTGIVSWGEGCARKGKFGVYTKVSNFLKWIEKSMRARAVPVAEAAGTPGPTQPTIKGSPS

Coagulation factor X [4] = target: Coagulation factor X (Homo sapiens, UniProt P00742); experiment: Inhibition of human Coagulation factor X
Coagulation factor X (Homo sapiens, UniProt P00742), sequence (P00742 41-179 limits assumed): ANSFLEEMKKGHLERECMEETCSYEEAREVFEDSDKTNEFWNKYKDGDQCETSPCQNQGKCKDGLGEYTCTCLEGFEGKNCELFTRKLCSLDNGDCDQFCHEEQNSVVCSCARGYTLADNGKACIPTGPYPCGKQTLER
Coagulation factor X (Homo sapiens, UniProt P00742), sequence (P00742 235-488 limits assumed): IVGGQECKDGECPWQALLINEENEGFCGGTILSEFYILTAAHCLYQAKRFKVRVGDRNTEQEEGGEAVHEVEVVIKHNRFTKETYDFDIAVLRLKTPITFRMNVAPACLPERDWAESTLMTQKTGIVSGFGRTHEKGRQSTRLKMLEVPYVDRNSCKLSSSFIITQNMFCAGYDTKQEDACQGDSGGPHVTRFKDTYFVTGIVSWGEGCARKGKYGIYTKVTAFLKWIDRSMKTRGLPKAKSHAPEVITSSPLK

[5] = Volume of distribution after intravenous administration of 1 mg/kg/h in dog; settings: in vivo

Row | Compound | half-life [1] [h] | Ki (Serine protease 1) [nM] | Vdss (Canis familiaris) [L/kg] | clearance [2] [mL/min/kg] | Ki (Prothrombin) [nM] | Ki (Coagulation factor X [3]) [nM] | Ki (Coagulation factor X [4]) [nM] | Vdss [5] [L/kg] | ID50 (Oryctolagus cuniculus) [µM/h/kg]
1 | N=C(N)c1cccc(-c2nocc2C(=O)Nc2ccc(-c3ccccc3S(N)(=O)=O)cc2)c1 | 4.3 | 21 | 1.7 | 25 | 2000 | 0.4 | – | – | 0.31
2 | N=C(N)c1cccc(-c2noc(CO)c2C(=O)Nc2ccc(-c3ccccc3S(N)(=O)=O)cc2)c1 | – | 50 | – | – | 1900 | – | 0.5 | – | –
3 | CS(=O)(=O)c1ccccc1-c1ccc(NC(=O)c2conc2-c2cccc(C(=N)N)c2)cc1 | – | 25 | – | – | 540 | – | 0.1 | – | –
4 | COCc1onc(-c2cccc(C(=N)N)c2)c1C(=O)Nc1ccc(-c2ccccc2S(N)(=O)=O)cn1 | – | 200 | – | – | 12000 | – | – | – | –
5 | COCC1(C(=O)Nc2ccc(-c3ccccc3S(N)(=O)=O)cc2)CC(c2cccc(C(=N)N)c2)=NO1 (stereo not drawn) | – | 70 | – | – | – | 0.8 | – | – | 0.26
6 | N=C(N)c1cccc(-c2noc(C(F)(F)F)c2C(=O)Nc2ccc(-c3ccccc3S(N)(=O)=O)cc2)c1 | – | 400 | – | – | 11000 | – | 9.5 | – | –
7 | N=C(N)c1cccc(-c2noc(N)c2C(=O)Nc2ccc(-c3ccccc3S(N)(=O)=O)cc2)c1 | – | 117 | – | – | 4000 | – | 3.4 | – | –

The next lines start with results.

Row | half-life [1] [h] | Ki (Serine protease 1) [nM] | Vdss (Canis familiaris) [L/kg] | clearance [2] [mL/min/kg] | Ki (Prothrombin) [nM] | Ki (Coagulation factor X [3]) [nM] | Ki (Coagulation factor X [4]) [nM] | Vdss [5] [L/kg] | Compound | ID50 (Oryctolagus cuniculus) [µM/h/kg]
8 | – | 91 | – | – | – | – | – | – | N=C(N)c1cccc(C2=NOC(Cn3cnnn3)(C(=O)Nc3ccc(-c4ccccc4S(N)(=O)=O)cc3)C2)c1 (stereo not drawn) | –
9 | 1 | 180 | 0.24 | 8.17 | 5700 | – | 2.3 | – | N=C(N)c1cccc(C2=NO[C@H](Cn3cnnn3)[C@H]2C(=O)Nc2ccc(-c3ccccc3S(N)(=O)=O)cc2)c1 | –
10 | 1.2 | 190 | – | 16.5 | 4600 | 0.64 | – | 0.38 | COC[C@H]1ON=C(c2cccc(C(=N)N)c2)[C@@H]1C(=O)Nc1ccc(-c2ccccc2S(N)(=O)=O)cc1 | 0.21
11 | 1.2 | 76 | 0.85 | 28.3 | 3800 | – | 0.63 | – | COCc1onc(-c2cccc(C(=N)N)c2)c1C(=O)Nc1ccc(-c2ccccc2S(N)(=O)=O)cc1 | –
12 | – | 110 | – | – | 4500 | – | 1.8 | – | C[C@H]1ON=C(c2cccc(C(=N)N)c2)[C@@H]1C(=O)Nc1ccc(-c2ccccc2S(N)(=O)=O)cc1 | –
13 | – | 120 | – | – | – | – | – | – | CC1(C(=O)Nc2ccc(-c3ccccc3S(N)(=O)=O)cc2)CC(c2cccc(C(=N)N)c2)=NO1 (stereo not drawn) | –
